Data reported in patent US11192859B2, “Quinoline compounds as modulators of RAGE activity and uses thereof” (NEW YORK UNIVERSITY, priority 2016, dated 2021).
pIC50, pKd: −log10 of the molar value.

What was measured:
[1] = target: binding of RAGE tail (ctRAGE) to DIAPH1 (Homo sapiens (Human), UniProt Q15109); test: Primary screen (high-throughput): blocking of GFP RAGE tail binding to DIAPH1; settings: for inhibition at 10 µM: Table 1
Protocol: […] Compounds that reduced binding of RAGE tail (ctRAGE) by at least 50% were then selected and subjected to 4-point dose response (10 uM, 1 uM, 0.1 uM and 0.01 uM).
• Step 1. Add 50 μl anti-DIAPH1 (1:160 dilution in 0.1M NaHCO3 pH 9.6)/well. Incubate overnight at 4° C. Day 2 • Step 2. Use the plate washer to aspirate anti-DIAPH11 and wash plates 4× with PBS 100 μl per well per wash. • Step 3. Add 180 μl 3% BSA in 1×PBS. Incubate for 1.5 hrs at room temperature Step 4. Use the plate washer to aspirate the blocking solution and wash 5× with PBS 300 μl per well. • Step 5. Add 50 μl of DIAPH1 containing lysate (85 μg) and incubate at RT for 3 hours. • Step 6. Aspirate the lysate and wash the plate 5×(100 μl) on the plate washer. • Step 7. Add 25 μl PBS to the wells. • Step 8. Add 0.5 μL compound per well. • Step 9. Add 24.5 μL GFP RAGE tail (125 nM) into each well for 2 hrs at room temperature. • Step 10. Aspirate and wash 5× with PBS (100 μL) on the plate washer. • Step 11. Add 100 μl PBS in each well. • Step 12. Detection: Read on fluorescence plate reader excitation […] and 485 nm emission
Compounds that blocked the binding of RAGE tail to DIAPH1 by 50% or more were subjected to 4 point dose response: 10 μM, 1 μM, 0.1 μM and 0.01 μM.

ctRAGE = ctRAGE (Homo sapiens (Human), UniProt Q15109); test: Fluorescence binding assay (native tryptophan fluorescence titration); design: key to Fluorescent Binding Assay, Kd (nM): ***: No binding; settings: 10 nM ctRAGE, pH 7.0, 5% DMSO; for pKd: read-out: Fluorescent Binding Assay, Kd
Protocol: Native tryptophan fluorescence experiments were conducted using a Horiba Jobin Yvon Fluorolog spectrofluorometer. 1 mM of compound was dissolved in 10 mM phosphate buffer [pH 7.0] and 50% DMSO. ctRAGE was bacterially expressed and purified as described^1. 10 nM ctRAGE solution was individually titrated from 0.1 nM-100 μM with the compounds in 100 μL of 10 mM phosphate buffer [pH 7.0] and 5% DMSO. The excitation and emission wavelengths were 280 nm and 352 nm, respectively. Dissociation constants, Kd, were estimated from the changes in peak fluorescence intensities as a function of the free compound concentration by using Prism 5 software (GraphPad). Data were fit to the equation, (F−F0)/Fmax=[compound]/(Kd+[compound]) where F is the fluorescence intensity at a given compound concentration, F0 is the fluorescence intensity of the blank, and Fmax is the maximum fluorescence intensity.

[2] = tested on: Murine vascular smooth muscle cells (SMCs); test: Smooth muscle cell migration assay (wounding assay), RAGE ligand CML-AGE; format: cell-based; design: key to SMC migration Assay, IC50 (nM): ****: No inhibition or bad fit or inhibition out of range; settings: CML-AGE 10 μg/ml, 7 h; for pIC50: Mus musculus, read-out: SMC migration Assay, IC50
Protocol: FIG. 4 depicts effects of compounds on RAGE ligand-stimulated migration of murine aortic smooth muscle cells (SMCs). Migration of SMCs after incubation with the indicated RAGE inhibitor compounds or the parent molecule (“C12”) quinolone from the Chem-Bridge library was assessed. SMCs were grown to confluence and serum-starved overnight. The following morning, serum free media was removed and compounds were added (1 μM). Immediately following the addition of compounds, the monolayer was wounded using a p200 pipette tip and allowed to incubate for 1.5 h. Following this incubation, compounds were removed and fresh media containing RAGE ligand, CML-AGE (10 μg/ml), was added for 7 h. All images were measured at TO and T7 h and an area ingrowth of effective migrating cells was calculated. Each compound was tested in three independent wells and each well was photographed in 3 separate locations for a total of 9 images used in assessing area ingrowth. Error bars represent SEM. * indicates p<0.05 comparing CML-AGE vs. CML-AGE and compound treatment and # indicates p<0.001 comparing CML-AGE vs. serum free medium (SFM) vehicle. Note that SFM is the vehicle into which the RAGE ligand, CML-AGE, is added for testing the effect of RAGE ligand.
Murine vascular smooth muscle cells (SMCs) were cultured from the aortas of 10-week old male mice using a modification of the procedure of Travo and Barret^17. SMCs were cultured following an explant protocol in accordance with institutional guidelines. Wild-type murine aortic vascular SMCs were isolated and used between passages 8 to 12. Migration in response to the RAGE ligand CML-AGE (CML, 10 μg/ml) or a general effector, not a RAGE ligand, PDGF-BB, 10 ng/ml (R&D systems, Minneapolis, Minn., USA) was assessed with a wounding assay. Cells were grown to confluence in 12-well plates and starved overnight. The following morning, serum free media was removed and compounds were added. Immediately following the addition of compounds, the monolayer was wounded using a p200 pipette tip and the compounds were allowed to incubate for 1.5 h. Following this incubation, all compounds were removed and fresh media containing RAGE ligand or general effector, PDGF-BB, was added for 7 h. Cells were maintained at 37° C. and 5% CO2. Images were obtained at TO and T7. Each image was measured and an area ingrowth of effective migrating cells was calculated. The SMC migration assay data for representative compounds, Compounds 229 and 247, is depicted in FIGS. 5a and 5b, respectively.

Sequence of binding of RAGE tail (ctRAGE) to DIAPH1 (Q15109 364-404): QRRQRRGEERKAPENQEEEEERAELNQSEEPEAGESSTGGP
Sequence of ctRAGE (Q15109 364-404): as above

| inhibition at 10 µM [1] | pKd (ctRAGE) | SMC migration Assay, IC50 (nM) [2] | further results | SMILES |
| --- | --- | --- | --- | --- |
| 51% |  |  |  | COC(=O)c1cc(-c2ccc(OC)cc2)nc2ccccc12 [Compound 1] |
| 27% |  |  |  | COC(=O)c1cc(-c2ccccc2)nc2cc(C)ccc12 [Compound 2] |
| 36% |  |  |  | CCCNC(=O)c1cc(-c2ccc(NC(=O)CC)cc2)nc2ccccc12 [Compound 3] |
| 45% |  |  |  | CC(=O)Nc1ccc(-c2cc(C(=O)NCCN(C)C)c3ccccc3n2)cc1 [Compound 4, 2-(4-Acetamidophenyl)-N-(2-(dimethylamino)ethyl)quinoline-4-carboxamide] |
| 34% |  |  |  | CC(=O)Nc1ccc(-c2cc(C(=O)N3CCOCC3)c3ccccc3n2)cc1 [Compound 5, N-(4-(4-(Morpholine-4-carbonyl)quinolin-2-yl)phenyl)acetamide] |
| 17% |  |  |  | COCCNC(=O)c1cc(-c2ccc(NC(C)=O)cc2)nc2ccccc12 [Compound 6] |
| 29% |  |  |  | CC(=O)Nc1ccc(-c2cc(C(=O)N3CCCC3)c3ccccc3n2)cc1 [Compound 7] |
| 64% |  |  |  | COC(=O)c1cc(-c2ccncc2)nc2ccccc12 [Compound 8] |
| 25% |  |  |  | CC(=O)Nc1ccc(-c2cc(C(=O)O)c3ccccc3n2)cc1 [Compound 9] |
| 28% |  |  |  | COC(=O)c1cc(-c2ccccc2C)nc2ccccc12 [Compound 10] |
| 34% |  |  |  | CNC(=O)c1cc(-c2ccc(C)cc2)nc2ccccc12 [Compound 11] |
|  |  |  | inhibition at 12.5 µM ([1]; 12.5 μM, Table 2): 20% | CC(=O)Nc1ccc(-c2cc(CN3CCOCC3)c3cccc(Cl)c3n2)cc1 [Compound 110, N-(4-(8-Chloro-4-(morpholinomethyl)quinolin-2-yl)phenyl)acetamide] |
|  | 7.89 | **** |  | CC(=O)Nc1ccc(-c2cc(CNCCN(C)C)c3ccccc3n2)cc1 [Compound 239, N-(4-(4-(((2-(dimethylamino)ethyl)amino)methyl)quinolin-2-yl)phenyl)acetamide] |
|  |  | **** | Fluorescent Binding Assay, Kd (nM) (ctRAGE): *** | CC(=O)Nc1ccc(-c2cc(CN(C)CCN(C)C)c3ccccc3n2)cc1 [Compound 240, N-(4-(4-(((2-(dimethylamino)ethyl)(methyl)amino)methyl)quinolin-2-yl)phenyl)acetamide] |
|  | 7.96 | **** |  | CNCCNCc1cc(-c2ccc(NC(C)=O)cc2)nc2ccccc12 [Compound 241, N-(4-(4-(((2-(methylamino)ethyl)amino)methyl)quinolin-2-yl)phenyl)acetamide] |
|  | 8.10 |  | pIC50 [2]: 7.36 | CNCCN(C)Cc1cc(-c2ccc(NC(C)=O)cc2)nc2ccccc12 [Compound 242, N-(4-(4-((methyl(2-(methylamino)ethyl)amino)methyl)quinolin-2-yl)phenyl)acetamide] |
|  |  | **** | Fluorescent Binding Assay, Kd (nM) (ctRAGE): *** | CC(=O)Nc1ccc(-c2cc(CCCN3CCOCC3)c3ccccc3n2)cc1 [Compound 243, N-(4-(4-(3-morpholinopropyl)quinolin-2-yl)phenyl)acetamide] |
|  | 7.27 | **** |  | CC(=O)Nc1ccc(-c2cc(CN3CCN(C(=O)OC(C)(C)C)CC3)c3ccccc3n2)cc1 [Compound 244, tert-butyl 4-((2-(4-acetamidophenyl)quinolin-4-yl)methyl)piperazine-1-carboxylate] |
|  |  | **** | Fluorescent Binding Assay, Kd (nM) (ctRAGE): *** | CC(=O)Nc1ccc(-c2cc(CN3CCN(C)CC3)c3ccccc3n2)cc1 [Compound 245, N-(4-(4-((4-methylpiperazin-1-yl)methyl)quinolin-2-yl)phenyl)acetamide] |
|  |  | **** | Fluorescent Binding Assay, Kd (nM) (ctRAGE): *** | CC(=O)Nc1ccc(-c2cc(CN3CCN(C(C)=O)CC3)c3ccccc3n2)cc1 [Compound 246, N-(4-(4-((4-acetylpiperazin-1-yl)methyl)quinolin-2-yl)phenyl)acetamide] |
|  | 8.70 |  | pIC50 [2]: 9.00 | CC(=O)Nc1ccc(-c2cc(CN3CCCCC3)c3ccccc3n2)cc1 [Compound 247, N-(4-(4-(piperidin-1-ylmethyl)quinolin-2-yl)phenyl)acetamide] |
|  |  | **** | Fluorescent Binding Assay, Kd (nM) (ctRAGE): *** | Cc1nc2ccc(-c3cc(CN4CCOCC4)c4ccccc4n3)cc2[nH]1 [Compound 248, 4-((2-(2-methyl-1H-benzo[d]imidazol-6-yl)quinolin-4-yl)methyl)morpholine] |
|  |  | **** | Fluorescent Binding Assay, Kd (nM) (ctRAGE): *** | Cc1nc2ccc(-c3cc(CN4CCOCC4)c4ccccc4n3)cc2o1 [Compound 249, 2-methyl-6-(4-(morpholinomethyl)quinolin-2-yl)benzo[d]oxazole] |
|  | 7.09 |  | pIC50 [2]: 7.40 | CC(=O)Nc1ccc(-c2cc(CN3CCOCC3)c3ccc(F)cc3n2)cc1F [Compound 250, N-(2-fluoro-4-(7-fluoro-4-(morpholinomethyl)quinolin-2-yl)phenyl)acetamide] |
|  | 6.77 | **** |  | CC(=O)Nc1ccc(-c2cc(CN3CCOCC3)c3ccc(F)cc3n2)cc1Cl [Compound 251, N-(2-chloro-4-(7-fluoro-4-(morpholinomethyl)quinolin-2-yl)phenyl)acetamide] |
|  | 7.54 |  | pIC50 [2]: 7.21 | CC(=O)Nc1ccc(-c2cc(CN3CCOCC3)c3ccc(F)cc3n2)cc1C#N [Compound 252, N-(2-cyano-4-(7-fluoro-4-(morpholinomethyl)quinolin-2-yl)phenyl)acetamide] |
|  | 5.89 |  | pIC50 [2]: 5.92 | CC(=O)Nc1ccc(-c2cc(CN3CCOCC3)c3ccc(Cl)cc3n2)cc1F [Compound 253, N-(4-(7-chloro-4-(morpholinomethyl)quinolin-2-yl)-2-fluorophenyl)acetamide] |
|  | 5.87 |  | pIC50 [2]: 5.70 | CC(=O)Nc1ccc(-c2cc(CN3CCOCC3)c3ccc(Cl)cc3n2)cc1Cl [Compound 254, N-(2-chloro-4-(7-chloro-4-(morpholinomethyl)quinolin-2-yl)phenyl)acetamide] |
|  | 6.86 | **** |  | CC(=O)Nc1ccc(-c2cc(CN3CCOCC3)c3ccc(Cl)cc3n2)cc1C#N [Compound 255, N-(4-(7-chloro-4-(morpholinomethyl)quinolin-2-yl)-2-cyanophenyl)acetamide] |
|  | 5.24 | **** |  | COc1ccc2c(CN3CCOCC3)cc(-c3ccc(NC(C)=O)c(F)c3)nc2c1 [Compound 256, N-(2-fluoro-4-(7-methoxy-4-(morpholinomethyl)quinolin-2-yl)phenyl)acetamide] |
